According to patent US20140079836A1, “METHODS AND COMPOSITIONS FOR ALTERING HEALTH, WELLBEING, AND LIFESPAN” (LifeSpan Extension, LLC, priority 2008, published 2014):

Test system: genes involved in longevity (Array 1)
Experiment: Custom RT-PCR microarray (Array 1) gene expression in skin fibroblasts, UVB/UVA1
Type: cell-based, human
Method: Seeding of cells: On Day 1, each cell culture was seeded into 6 well cluster dishes at ˜1.5×10^5 cells in 4 mls medium per well. Three wells were seeded per test condition or control.
Experimental phase: On Day 3, wells were washed 1× with 2 mls medium, fed back 2 mls medium without fetal bovine serum and preincubated for 30-60 minutes before challenge with test or control conditions. After the preincubation, medium was aspirated from the wells and 2.5 mls of test or control condition in medium with 1% fetal bovine serum was pipetted into the appropriate wells.
(3) UVA1, UVB exposed and unexposed cells without test condition were used as controls. The experimental phase ended at 24 hours post UV exposure. Cells from each test and control parameter were then prepped for RNA isolation as described below.
UVB/UVA1 exposure: Cells exposed to UV received 200 mJ/cm^2 UVB/1 MED UVA1 using Thermo Oriel solar simulator model SP66923-3056. Cells were exposed from the bottom of the culture dish. The UV dose delivered to the cells was adjusted for interference from the plastic in the culture dish.
Preparation of RNA: The RNA was isolated using the Qiagen RNEasy Plus Mini Kit according to the manufacturer's protocol which can be found on the World Wilde Web at qiagen.com/literature/Defaultaspx?Term=&Language=EN&LiteratureType=4& ProductCategory=10162. The RNA was quantified and examined for purity using the 260/280 nm read method in a μ Quant spectrophotometer before use in the array.
Creation and Performance of a Custom Microarray (“Array 1”): Through the Custom Array design service of Superarray Bioscience Corporation, a 96 well RT-PCR microarray (“Array 1”) was developed to illustrate genetic responses in cells treated as above for specific genes involved in longevity as well as the relevant quality controls. The array was performed in compliance with manufacturer's guidelines and by recommended manufacturer's protocol as can be found on the World Wilde Web at superarray.com/Manual/perarrayplate.pdf
(§1) Custom Microarray Results: The results from the microarrays were determined using the delta CT method which uses comparisons of control genes and threshold cycles of genes of interest to generate relative expression values. The full set of experimental conditions was cross referenced and the data is provided herewith in DATA TABLE 3.
Preparation of RNA: The RNA was isolated using the Qiagen RNEasy Plus Mini Kit according to the manufacturer's protocol which can be found on the World Wide Web at qiagen.com/literature/Default. aspx?Term=&Language=EN&LiteratureType=4&ProductCategory=10162.
The RNA was quantified and examined for purity using the 260/280 nm read method in a μ Quant spectrophotometer before use in the array.
Creation and Performance of the Custom Microarray: Through the Custom Array design service of Superarray Bioscience Corporation, a 96 well RT-PCR Microarray was developed to illustrate genetic responses in cells treated as above for specific genes involved in longevity as well as the relevant quality controls. The array was performed in compliance with manufacturer's guidelines and by recommended manufacturer's protocol as can be found on the World Wide Web at superarray.com/Manual/perarrayplate.pdf.
as §1, with “4.” for “3.”
as §1, with “5. […]” for “3.”

[1] = donor three vs. donor two idebenone + UVB Continuous Incubation
[2] = donor two idebenone + UVB 4 hr Incubation
[3] = donor two idebenone + UVB Continuous Incubation

## COC1=C(OC)C(=O)C(CCCCCCCCCCO)=C(C)C1=O [Idebenone, 6-(10-hydroxydecyl)-2,3-dimethoxy-5-methyl-1,4-benzoquin-one]
[1]
  HSPA1A expression fold change: 2.28
  HSPA1B expression fold change: 2.62
  HSPA1L expression fold change: 1.61
  IFI44 expression fold change: −1.43
  IGF1 expression fold change: −1.08
  IGF2 expression fold change: −1.16
  IL1A expression fold change: 2.20
  IL6 expression fold change: 3.97
  IL10 expression fold change: 1.14
  KRAS expression fold change: 1.18
  MAPK14 expression fold change: 1.03
  NADSYN1 expression fold change: 2.28
  NFKB1 expression fold change: 1.56
  NOS2A expression fold change: 1.56
  PARP1 expression fold change: 2.05
  PARP2 expression fold change: −1.48
  PPARG expression fold change: −1.76
  PTGS2 expression fold change: 2.44
  SHC1 expression fold change: 1.67
  SIRT1 expression fold change: −1.04
  SOD1 expression fold change: 2.44
  SOD2 expression fold change: −1.38
  TEP1 expression fold change: 1.31
  TERT expression fold change: 2.13
  TNF expression fold change: 1.40
  TP53 expression fold change: −1.04
[2]
  ACE expression fold change: 1.22
  ACTB expression fold change: −1.01
  APOE expression fold change: 1.03
  BAX expression fold change: 1.40
  BCL2 expression fold change: 1.40
  CASP2 expression fold change: −1.53
  CASP9 expression fold change: 1.27
  CCL4L1 expression fold change: 1.06
  CLK1 expression fold change: −1.24
  COX1 expression fold change: 1.14
  CREBBP expression fold change: 1.10
  CYP19A1 expression fold change: 1.40
  DDC expression fold change: 1.45
  GAPDH expression fold change: −1.95
  GH1 expression fold change: −1.04
  HIGX1A fold change: −1.42
  HLA-DRA expression fold change: 1.22
  HPRT1 expression fold change: 1.03
  HSPA1A expression fold change: 1.06
  HSPA1B expression fold change: 1.56
  HSPA1L expression fold change: 1.40
  IFI44 expression fold change: 2.20
  IGF1 expression fold change: −1.47
  IGF2 expression fold change: 1.06
  IL1A expression fold change: −2.16
  IL6 expression fold change: −11.39
  IL10 expression fold change: 1.14
  KRAS expression fold change: 1.73
  MAPK14 expression fold change: 1.27
  NADSYN1 expression fold change: −1.08
  NFKB1 expression fold change: 2.20
  NOS2A expression fold change: 1.61
  PARP1 expression fold change: 1.92
  PARP2 expression fold change: 1.22
  PPARG expression fold change: 1.18
  PTGS2 expression fold change: 1.61
  SHC1 expression fold change: 2.06
  SIRT1 expression fold change: 1.18
  SOD1 expression fold change: −1.08
  SOD2 expression fold change: 1.27
  TEP1 expression fold change: 1.31
  TERT expression fold change: −1.38
  TNF expression fold change: −1.20
  TP53 expression fold change: −1.64
[3]
  ACE expression fold change: 1.92
  ACTB expression fold change: 1.31
  APOE expression fold change: 1.18
  BAX expression fold change: −1.04
  BCL2 expression fold change: 3.83
  CASP2 expression fold change: 1.14
  CASP9 expression fold change: 2.13
  CCL4L1 expression fold change: 1.40
  CLK1 expression fold change: 1.85
  COX1 expression fold change: −1.43
  CREBBP expression fold change: 1.18
  CYP19A1 expression fold change: 1.31
  DDC expression fold change: 1.85
  GAPDH expression fold change: −1.38
  GH1 expression fold change: 3.01
  HIGX1A fold change: 1.22
  HLA-DRA expression fold change: 2.44
  HPRT1 expression fold change: 5.23
  HSPA1A expression fold change: 1.50
  HSPA1B expression fold change: 3.70
  HSPA1L expression fold change: −2.48
  IFI44 expression fold change: 1.56
  IGF1 expression fold change: 3.45
  IGF2 expression fold change: −1.12
  IL1A expression fold change: 3.57
  IL6 expression fold change: 3.01
  IL10 expression fold change: 2.05
  KRAS expression fold change: 2.13
  MAPK14 expression fold change: 2.44
  NADSYN1 expression fold change: 1.56
  NFKB1 expression fold change: 3.70
  NOS2A expression fold change: 1.98
  PARP1 expression fold change: 1.67
